PMC5490409, “Anti-Mycobacterial Evaluation of 7-Chloro-4-Aminoquinolines and Hologram Quantitative Structure–Activity Relationship (HQSAR) Modeling of Amino–Imino Tautomers” (Pharmaceuticals, 2017)
Values after ≈ are worked out from the molar mass of the structure shown.

tested on: Mycobacterium tuberculosis wild-type H37Rv strain (ATCC 27294); assay: microplate Alamar blue assay (MABA), anti-mycobacterial activity; format: cell-based; conditions: M. tuberculosis H37Rv, MABA, read-out: MIC

Row | Structure (SMILES) | MIC [µM]
1 | COc1cc(/C=N/Nc2ccnc3cc(Cl)ccc23)cc(OC)c1OC [D08] | 16.8 (≈ 6.25 µg/mL)
2 | COc1cccc(/C=N/Nc2ccnc3cc(Cl)ccc23)c1OC [D05] | 7.3 (≈ 2.5 µg/mL)
3 | COc1ccc(OC)c(/C=N/Nc2ccnc3cc(Cl)ccc23)c1 [D07] | 18.3 (≈ 6.25 µg/mL)
4 | Clc1ccc2c(N/N=C/c3c(Cl)cccc3Cl)ccnc2c1 [D01] | 143 (≈ 50 µg/mL)
5 | Oc1ccc(O)c(/C=N/Nc2ccnc3cc(Cl)ccc23)c1 [D04] | 79.7 (≈ 25 µg/mL)
6 | COc1ccc(/C=N/Nc2ccnc3cc(Cl)ccc23)cc1OC [D06] | 7.3 (≈ 2.5 µg/mL)
7 | Oc1cccc(/C=N/Nc2ccnc3cc(Cl)ccc23)c1O [D02] | 79.7 (≈ 25 µg/mL)
8 | CC[C@@H](CO)NCCN[C@@H](CC)CO [EMB, ethambutol] | 15.3 (≈ 3.13 µg/mL)
9 | Oc1ccc(C=NNc2ccnc3cc(Cl)ccc23)cc1O [D03] | 319 (≈ 100 µg/mL)
10 | COc1ccc(C=NNc2ccnc3cc(Cl)ccc23)c(Cl)c1O [D09] | 17.3 (≈ 6.27 µg/mL)

same assay, conditions: read-out: pMIC (pMICExp)

Row | Structure (SMILES) | MIC [µM]
11 | COc1ccc(OC)c(/C=N/Nc2ccnc3cc(Cl)ccc23)c1 [D07] | 18.2 (≈ 6.22 µg/mL)

same assay, conditions: series D, –Log of MIC of Table 1, read-out: pMIC (pMICExp) (converted)

Row | Structure (SMILES) | MIC [µM]
12 | COc1cc(/C=N/Nc2ccnc3cc(Cl)ccc23)cc(OC)c1OC [D08] | 17
13 | COc1cccc(/C=N/Nc2ccnc3cc(Cl)ccc23)c1OC [D05] | 7.24
14 | Clc1ccc2c(N/N=C/c3c(Cl)cccc3Cl)ccnc2c1 [D01] | 141
15 | Oc1ccc(O)c(/C=N/Nc2ccnc3cc(Cl)ccc23)c1 [D04] | 79.4
16 | COc1ccc(/C=N/Nc2ccnc3cc(Cl)ccc23)cc1OC [D06] | 7.24
17 | Oc1cccc(/C=N/Nc2ccnc3cc(Cl)ccc23)c1O [D02] | 79.4
18 | Oc1ccc(C=NNc2ccnc3cc(Cl)ccc23)cc1O [D03] | 316
19 | COc1ccc(C=NNc2ccnc3cc(Cl)ccc23)c(Cl)c1O [D09] | 16.2

tested on: macrophage cell line J774 (ATCC TIB-67); assay: not given; conditions: not given

Row | Structure (SMILES) | Cell Viability (%)/Dose (µg/mL) 2.5
20 | COc1cccc(/C=N/Nc2ccnc3cc(Cl)ccc23)c1OC [D05] | did not show a significant cytotoxic profile
21 | Clc1ccc2c(N/N=C/c3c(Cl)cccc3Cl)ccnc2c1 [D01] | did not show a significant cytotoxic profile
22 | Oc1ccc(O)c(/C=N/Nc2ccnc3cc(Cl)ccc23)c1 [D04] | did not show a significant cytotoxic profile

tested on: Mycobacterium tuberculosis wild-type H37Rv strain; assay: not given; conditions: series A lead, H37Rv; cited from earlier work

Row | Structure (SMILES) | MIC [µM]
23 | NCCCCCCCCCCNc1ccnc2cc(Cl)ccc12 [A08] | 9.3 (≈ 3.11 µg/mL)

same assay, conditions: series A; –Log of MIC on M. tuberculosis; cited from earlier work

Row | Structure (SMILES) | pMIC (pMICExp)
24 | NCCCCCCCCCCNc1ccnc2cc(Cl)ccc12 [A08] | 5.03
25 | CNc1ccnc2cc(Cl)ccc12 [A09] | 3.28
26 | NCCCCCCCCNc1ccnc2cc(Cl)ccc12 [A07] | 4.69
27 | CC(C)Nc1ccnc2cc(Cl)ccc12 [A11] | 3.64
28 | CCCNCCNc1ccnc2cc(Cl)ccc12 [A03] | 3.42
29 | ClCCCNc1ccnc2cc(Cl)ccc12 [A13] | 3.71
30 | ClCCNc1ccnc2cc(Cl)ccc12 [A01] | 4.29
31 | NCCCCCCNc1ccnc2cc(Cl)ccc12 [A06] | 4.05
32 | CCCCNc1ccnc2cc(Cl)ccc12 [A12] | 4.27
33 | CCCNc1ccnc2cc(Cl)ccc12 [A10] | 3.64
34 | Clc1ccc2c(NCCNc3ccccc3)ccnc2c1 [A05] | 3.77
35 | [N-]=[N+]=NCCNc1ccnc2cc(Cl)ccc12 [A02] | 3.69

same assay, conditions: series B; –Log of MIC on M. tuberculosis; cited from earlier work

Row | Structure (SMILES) | pMIC (pMICExp)
36 | Clc1ccc2c(N/N=C/c3cccc(Br)c3)ccnc2c1 [B04] | 5.06
37 | Clc1ccc2c(N/N=C/c3ccc(Br)cc3)ccnc2c1 [B05] | 5.16

same assay, conditions: series C; –Log of MIC on M. tuberculosis; cited from earlier work

Row | Structure (SMILES) | pMIC (pMICExp)
38 | O=[N+]([O-])c1ccc(/C=N/Nc2ccnc3cc(Cl)ccc23)s1 [C03] | 5.43
39 | Clc1ccc2c(N/N=C/c3ccc[nH]3)ccnc2c1 [C05] | 4.94
40 | Clc1ccc2c(N/N=C/c3ccn[nH]3)ccnc2c1 [C06] | 4.94
41 | Clc1ccc2c(N/N=C/c3ccccn3)ccnc2c1 [C07] | 4.35
42 | O=[N+]([O-])c1ccc(/C=N/Nc2ccnc3cc(Cl)ccc23)o1 [C01] | 5.10
43 | Clc1ccc2c(N/N=C/c3cccs3)ccnc2c1 [C04] | 4.96
44 | Clc1ccc2c(N/N=C/c3ccco3)ccnc2c1 [C02] | 4.94

tested on: MTB wild-type H37Rv strain; assay: not given; design: method as in PMID 15591164; conditions: cited from earlier work

Row | Structure (SMILES) | MIC [µM]
45 | COc1nc2ccc(Br)cc2cc1[C@@H](c1ccccc1)[C@@](O)(CCN(C)C)c1cccc2ccccc12 [bedaquiline] | ≤ 0.1

tested on: MTB MDR strains; assay: not given; conditions: cited from earlier work

Row | Structure (SMILES) | MIC [µM]
46 | COc1nc2ccc(Br)cc2cc1[C@@H](c1ccccc1)[C@@](O)(CCN(C)C)c1cccc2ccccc12 [bedaquiline] | ≤ 0.5

tested on: not listed separately; assay: in vitro; conditions: mouse

Row | Structure (SMILES) | viability at 48 h, 2.5 µg/mL [%] | viability at 48 h, 25 µg/mL [%] | viability at 48 h, 100 µg/mL [%]
47 | COc1cc(/C=N/Nc2ccnc3cc(Cl)ccc23)cc(OC)c1OC [D08] | 93 | 90 | 69
48 | COc1cccc(/C=N/Nc2ccnc3cc(Cl)ccc23)c1OC [D05] | 98 | 97 | 85
49 | COc1ccc(OC)c(/C=N/Nc2ccnc3cc(Cl)ccc23)c1 [D07] | 40 | 22 | 47
50 | Clc1ccc2c(N/N=C/c3c(Cl)cccc3Cl)ccnc2c1 [D01] | 100 | 90 | 86
51 | Oc1ccc(O)c(/C=N/Nc2ccnc3cc(Cl)ccc23)c1 [D04] | 100 | 100 | 70
52 | COc1ccc(/C=N/Nc2ccnc3cc(Cl)ccc23)cc1OC [D06] | 65 | 8 | 20
53 | Oc1cccc(/C=N/Nc2ccnc3cc(Cl)ccc23)c1O [D02] | 83 | 40 | 83
54 | Oc1ccc(C=NNc2ccnc3cc(Cl)ccc23)cc1O [D03] | 78 | 35 | 72
55 | COc1ccc(C=NNc2ccnc3cc(Cl)ccc23)c(Cl)c1O [D09] | 80 | 55 | 48

tested on: not listed separately; assay: Mosmann's MTT cell viability (cytotoxicity) assay; conditions: mouse

Row | Structure (SMILES) | viability at 48 h, 2.5 µg/mL [%] | viability at 48 h, 25 µg/mL [%] | viability at 48 h, 100 µg/mL [%]
56 | CC[C@@H](CO)NCCN[C@@H](CC)CO [EMB, ethambutol] | 100 | 93 | 82
